Test results reported in US20060073574A1 (priority 2001, published 2006).

How the values were obtained:
Saccharomyces cerevisiae = assay: antifungal activity test against Saccharomyces cerevisiae; settings: tested against Saccharomyces cerevisiae
[1] = system: human immunodeficiency virus (HIV); settings: cited from earlier work; for inhibition of HIV infection / HIV-1 replication: cultured cells
[2] = amphotericin B: intravenous or intrathecal routes; cited from earlier work
BSE or scrapie agents = settings: cited from earlier work; for survival times: hamsters and mice infected intracerebrally with BSE or scrapie agents; for delaying the onset of symptoms associated with scrapie and BSE: transmissible spongiform encephalopathies scrapie and BSE
Leishmania = settings: cited from earlier work
[3] = compared with amphotericin B; cited from earlier work
[4] = derivative of amphotericin B; cited from earlier work

Row | Structure (SMILES) | antifungal activity (Saccharomyces cerevisiae) | inhibition of HIV infection / HIV-1 replication ([1]; in vitro) | toxicity [2] | survival times (BSE or scrapie agents) | delaying the onset of symptoms associated with scrapie and BSE (BSE or scrapie agents) | activity against Leishmania (Leishmania) | T-cell activation via the CD3/TcR ([1]; HIV CD4+ cells) | cytotoxicity ([1]; in vitro, all cell types) | water solubility [3] | activity retained [4]
1 | C[C@@H]1[C@H](O)[C@@H](C)/C=C/C=C/C=C/C=C/C=C/C=C/C=C/[C@H](O[C@@H]2O[C@@H](C)[C@@H](O)[C@H](N)[C@@H]2O)C[C@@H]2O[C@](O)(C[C@@H](O)C[C@@H](O)CCC[C@@H](O)C[C@@H](O)CC(=O)O[C@H]1C)C[C@H](O)[C@H]2C(=O)O [8-deoxyamphotericin B] | as great as that of amphotericin B |  |  |  |  |  |  |  |  | 
2 | C[C@@H]1[C@H](O)[C@@H](C)/C=C/C=C/C=C/C=C/C=C/C=C/C=C/[C@H](O[C@@H]2O[C@H](C)[C@@H](O)[C@H](N)[C@@H]2O)C[C@@H]2O[C@](O)(C[C@@H](O)C[C@@H](O)[C@H](O)CC[C@@H](O)C[C@@H](O)CC(=O)O[C@H]1C)C[C@H](O)[C@H]2C(=O)O [Amphotericin B] |  | inhibits infection of cultured cells | consistently associated with a number of toxic side-effects | prolonged the survival times | showed activity in delaying the onset of symptoms | active against Leishmania |  |  |  | 
3 | CNC[C@H](O)[C@@H](O)[C@H](O)[C@H](O)CO.C[C@@H]1[C@H](O)[C@@H](C)/C=C/C=C/C=C/C=C/C=C/C=C/C=C/[C@H](O[C@@H]2O[C@H](C)[C@@H](O)[C@H](NCC(=O)[C@@H](O)[C@@H]3OC(c4ccccc4)OC[C@H]3O)[C@@H]2O)C[C@@H]2O[C@](O)(C[C@@H](O)C[C@@H](O)[C@H](O)CC[C@@H](O)C[C@@H](O)CC(=O)O[C@H]1C)C[C@H](O)[C@H]2C(=O)O (stereo partly shown) [MS-8209] |  | inhibit HIV-1 replication in vitro in all cell types |  | prolonged the survival times | showed activity in delaying the onset of symptoms |  | restore T-cell activation | without cytotoxicity | more water soluble | retains activity
